The target in one data set is OAT1 (Homo sapiens (Human), UniProt Q4U2R8). Description: Inhibitory effect on transporter OAT1.
A further data set concerns the target OAT3 (Homo sapiens (Human), UniProt Q8TCC7). Kind of data set: Inhibitory effect on transporter OAT3.
The subject of data set [1] is rat model of hyperuricemia. Kind of data set: Rat model of hyperuricemia induced by oteracil potassium and hypoxanthine. Type of data set: in vivo. The note with it: P<0.05. On the procedure: Oteracil potassium was combined with hypoxanthine to induce a rat model of hyperuricemia for effective dose exploration and dose-effect relationship research. Oteracil potassium feed was adopted for feeding to induce the rat model of hyperuricemia for time-effect relationship, pathological state-based functional mechanism confirmation, and PK-PD researches.
In the experiment, the rat model of hyperuricemia was prepared by intragastric administration of hypoxanthine and intraperitoneal injection of oteracil potassium. The single intragastric administration dose of the compound shown in Formula 1 was set to be 5 mg/kg, 10 mg/kg, 20 mg/kg, and 40 mg/kg. The single intragastric administration dose of Lesinurad in the positive control groups was set to be 10 mg/kg, 20 mg/kg, 40 mg/kg, and 80 mg/kg. […] Moreover, the compounds had no significant effect on the renal coefficient, further verifying the good safety of this product at the effective dose.

A further data set deals with hURAT1 (Homo sapiens (Human), UniProt Q96S37). Kind of data set: In vitro inhibition of 14C-uric acid absorption in HEK-293T cells stably expressing hURAT1. Type of data set: cell-based. On the procedure: It was to test the in vitro inhibitory activity (IC50) of the compound on hURAT1.
Chain of hURAT1 (Q96S37 whole entry): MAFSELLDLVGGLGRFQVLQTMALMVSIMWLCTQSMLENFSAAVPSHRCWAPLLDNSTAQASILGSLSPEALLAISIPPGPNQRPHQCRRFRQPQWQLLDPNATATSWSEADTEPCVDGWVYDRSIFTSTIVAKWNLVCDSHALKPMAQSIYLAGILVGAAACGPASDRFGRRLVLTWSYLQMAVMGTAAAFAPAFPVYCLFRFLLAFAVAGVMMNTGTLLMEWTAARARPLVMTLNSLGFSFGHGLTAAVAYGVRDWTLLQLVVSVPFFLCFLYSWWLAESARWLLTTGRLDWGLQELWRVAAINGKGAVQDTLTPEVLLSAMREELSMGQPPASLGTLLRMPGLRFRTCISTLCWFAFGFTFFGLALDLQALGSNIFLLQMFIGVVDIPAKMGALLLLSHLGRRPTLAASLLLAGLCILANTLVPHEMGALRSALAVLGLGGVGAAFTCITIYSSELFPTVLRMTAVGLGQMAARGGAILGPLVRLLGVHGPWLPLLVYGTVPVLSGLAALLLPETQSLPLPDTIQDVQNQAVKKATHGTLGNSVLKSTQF
The culture medium included: a DMEM culture medium+10% of fetal calf serum+500 μg/ml G418+1% of P/S. • (2) When the cells grew to 80% full, the culture medium was removed, PBS was added to clean the cells once, and then pancreatin-EDTA was added for digestion. The culture medium was added when the cells were subjected to wall removal, and subjected to blowing and beating to make the cells fall off. The cells were centrifuged and collected. The culture medium was added, and subjected to blowing and beating to form cell suspension. • (3) The cell density was adjusted to be 7×10^5/ml, then the cells were inoculated into a 96-well cell culture plate with white wall and transparent bottom according to the amount of 100 μL/well, and cultured for 12-24 h.
3.3 Preparation of compounds • (1) The compound was prepared into a mother solution with a concentration of 20 mM by DMSO, the mother solution was diluted to reach a concentration of 1 mM by DMSO, and then the solution was added into 96 wells. • (2) Quality control compounds were additionally arranged on the 96-well plate, so as to obtain a 100 x compound plate. • (3) The solutions in corresponding wells of another 96-well plate were diluted 50 times by the Cl-free HBSS buffer solution, so as to obtain a 2 x compound plate (plate 2). • (4) A buffer solution containing 0.1 μCi/ml 14C-uric acid at a density of 30 μL/well and a 2 x diluted compound at a density of 30 μL/well into a new 96-well plate, so as to obtain a 1 x compound plate (plate 1) for later use.
3.4 Absorption of ^14C-uric acid in cells stably expressing hURAT1 • (1) An absorption test may be performed after cells in the 96-well plate were cultured and adhered to the wall. • (2) The cells were washed once by the preheated buffer solution at a density of 200 μL/well. • (3) The cells in each well were completely absorbed, and then the corresponding compounds and 0.1 μCi/ml 14C-uric acid solution were immediately added at a density of 50 μL/well. • (4) The plate added with the compounds was incubated in an incubator at 37° C. for 5 min. • (5) 150 μL of ice-cold buffer solution was immediately added into each well to stop absorption. Each well was washed for three times with the buffer solution.

The next data set has as its target OAT4 (Homo sapiens (Human), UniProt Q9NSA0). Description: Inhibitory effect on transporter OAT4.
The mark [2] stands for this setting: curve-fit parameter, hURAT1 inhibition, superscript 1 = plate1, 2 = plate2.

Molecules are shown by their SMILES. pIC50: −log10 of the molar value. Where two headings read alike, the source gives them in different places. A value given as a limit tells only on which side of the number the result lay.

This note sets out measurements from patent US20240116873A1, “QUINOLINE MERCAPTOACETATE SULFONAMIDE DERIVATIVE, INTERMEDIATE, PHARMACEUTICAL DERIVATIVE OR FORMULATION, AND PREPARATION METHOD AND USE THEREFOR” (JIANGSU CHIATAI QINGJIANG PHARMACEUTICAL CO., LTD., priority 2022, published 2024).

Chain of OAT3 (Q8TCC7 whole entry): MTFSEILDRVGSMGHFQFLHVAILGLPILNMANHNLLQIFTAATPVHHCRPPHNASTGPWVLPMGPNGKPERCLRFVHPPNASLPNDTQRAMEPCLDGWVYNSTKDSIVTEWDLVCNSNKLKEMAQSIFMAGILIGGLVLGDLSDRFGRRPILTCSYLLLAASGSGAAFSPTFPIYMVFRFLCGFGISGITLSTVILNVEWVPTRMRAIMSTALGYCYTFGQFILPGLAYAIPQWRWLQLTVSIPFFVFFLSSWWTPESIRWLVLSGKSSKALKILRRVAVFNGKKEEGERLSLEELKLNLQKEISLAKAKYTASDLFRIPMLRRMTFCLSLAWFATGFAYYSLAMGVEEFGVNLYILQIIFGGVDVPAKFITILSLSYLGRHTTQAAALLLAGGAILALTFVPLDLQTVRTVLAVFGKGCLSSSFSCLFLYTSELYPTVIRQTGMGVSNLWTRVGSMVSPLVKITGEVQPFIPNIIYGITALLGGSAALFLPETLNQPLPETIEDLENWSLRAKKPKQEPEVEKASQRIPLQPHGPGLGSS
Chain of OAT1 (Q4U2R8 whole entry): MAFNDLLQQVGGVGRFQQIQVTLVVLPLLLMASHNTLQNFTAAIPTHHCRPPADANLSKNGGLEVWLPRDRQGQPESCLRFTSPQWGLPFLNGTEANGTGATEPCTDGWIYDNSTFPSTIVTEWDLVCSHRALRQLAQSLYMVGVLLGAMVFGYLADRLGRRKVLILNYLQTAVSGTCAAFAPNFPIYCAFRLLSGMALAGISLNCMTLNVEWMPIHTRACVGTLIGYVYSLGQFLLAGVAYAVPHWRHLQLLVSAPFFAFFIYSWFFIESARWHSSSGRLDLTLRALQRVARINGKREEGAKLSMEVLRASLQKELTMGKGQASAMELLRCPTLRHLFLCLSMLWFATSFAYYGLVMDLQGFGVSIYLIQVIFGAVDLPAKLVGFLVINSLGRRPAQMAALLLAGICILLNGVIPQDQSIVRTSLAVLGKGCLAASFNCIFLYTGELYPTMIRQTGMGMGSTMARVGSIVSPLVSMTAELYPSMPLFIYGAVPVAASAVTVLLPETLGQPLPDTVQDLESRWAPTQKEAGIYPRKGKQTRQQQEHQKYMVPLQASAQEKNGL
Chain of OAT4 (Q9NSA0 whole entry): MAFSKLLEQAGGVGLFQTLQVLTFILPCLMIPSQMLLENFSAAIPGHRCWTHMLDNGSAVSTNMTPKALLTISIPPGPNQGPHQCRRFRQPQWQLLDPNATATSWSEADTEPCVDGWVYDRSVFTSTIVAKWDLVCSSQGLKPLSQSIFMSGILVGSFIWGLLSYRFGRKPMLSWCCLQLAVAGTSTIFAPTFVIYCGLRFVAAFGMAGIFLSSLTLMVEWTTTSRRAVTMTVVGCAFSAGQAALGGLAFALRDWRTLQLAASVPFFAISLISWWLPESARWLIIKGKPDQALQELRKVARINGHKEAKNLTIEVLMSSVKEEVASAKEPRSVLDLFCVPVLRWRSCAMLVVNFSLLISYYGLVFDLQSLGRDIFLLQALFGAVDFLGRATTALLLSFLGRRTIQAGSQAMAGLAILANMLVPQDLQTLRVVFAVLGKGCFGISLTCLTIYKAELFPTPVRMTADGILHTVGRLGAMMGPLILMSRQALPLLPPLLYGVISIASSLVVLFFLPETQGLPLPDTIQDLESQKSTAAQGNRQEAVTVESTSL
Method for OAT1: (§1) The IC50 of compounds on URAT1, OAT1, OAT3, and OAT4 was tested, thereby providing research data for clinical application and further development of drugs.
Method for OAT3: as §1
Method for OAT4: as §1

With `CC(C)(Sc1ccnc2ccc(C(F)(F)F)cc12)C(=O)NS(C)(=O)=O` [D], the negative-log IC50 (pIC50) on OAT1 is 4.90; against OAT3 it was below 4.00.
Consider `O=C(O)CSc1nnc(Br)n1-c1ccc(C2CC2)c2ccccc12` [Lesinurad], for which the “serum uric acid level” value in data set [1] (model rats, single intragastric dose 40 mg/kg, vs model control group) is given as “significantly reduce”. Further, the renal coefficient result in data set [1] (rats, single intragastric dose 80 mg/kg) is given as “increased significantly”.
At hURAT1, `CCc1oc2ccccc2c1C(=O)c1cc(Br)c(O)c(Br)c1` [Benzbromarone] came in with a BOTTOM of 6.1, an HILLSLOPE of 1.20 and a TOP of 99.1.
`CC(C)(Sc1ccncc1-c1ccc(C#N)c2ccccc12)C(=O)O` [Verinuard, Verinurad]: on hURAT1 (setting [2]), the BOTTOM is given as 0.00, the HILLSLOPE is 0.75 and the TOP came to 96.94. The pIC50 against hURAT1 (hURAT1, HEK-293T, 14C-uric acid, 5 min at 37° C., superscript 1 = plate1, 2 = plate2) is 7.26.
For `CCCN(CCC)S(=O)(=O)c1ccc(C(=O)O)cc1` [Probenecid], the “inhibitory effect on drug transporter OAT4 (in words)” value against OAT4 is “a certain inhibitory effect”.

One may read the pIC50 as the negative decadic logarithm of the IC50, by convention in mol/L. Read a high pIC50 as a small IC50.
